Data on 12 compounds can be found in publication PMC4257840 (Journal of Medicinal Chemistry, 2014).

Molecules are shown by their SMILES. Where only a bound is given, the exact number is not on record here.

In series [1] the test system is rat alveolar macrophage line NR8383. Description: Stability in the presence of airway macrophages. Type of series: in vitro ADME.
Description: Stability in the presence of epithelial cells and ma crophages.
NR8383 Airway macroph a ges
were grown in suspension culture in F12K, collected b y centrifugation, washed in serum-free
exposed to test compounds in serum-free F12K at a standard concentration of 100 nM in a 5%
CO2 environment at 37 °C. Samples were removed at selected time points for quantitative
Assa ys w ere p er formed in replicate and t he data ex pressed as mean ± SE.
The next series addresses human liver Cat B (Homo sapiens, UniProt P07858). Description: Cathepsin B inhibition assay. As to conditions: read-out: Cat B IC50; mean ± SE.
Series [2] addresses T1, Der p 1 (Dermatophagoides pteronyssinus, UniProt P08176).
T1 sequence (P08176 99-320): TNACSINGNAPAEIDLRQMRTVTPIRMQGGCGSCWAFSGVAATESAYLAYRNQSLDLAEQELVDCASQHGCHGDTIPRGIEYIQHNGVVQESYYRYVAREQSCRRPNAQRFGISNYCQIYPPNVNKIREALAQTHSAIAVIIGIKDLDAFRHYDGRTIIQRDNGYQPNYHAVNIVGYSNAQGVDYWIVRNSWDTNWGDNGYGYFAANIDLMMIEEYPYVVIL
Description: biochemical. Type of series: biochemical. As to conditions: mean ± SE.
Description: Automated screening of inhibitory activity toward group 1 HDM peptidase allergens was performed as described elsewhere[25],[43] with the minor modification that Der p 1 or Der f 1 were incubated with inhibitors for 20 min prior to initiation of reactions by addition of substrate. In initial screening, the activity of each compound was measured using a series of 10 doubling dilutions from a starting concentration of 50 μM. […] Assays were performed in triplicate for calculation of mean ± SE IC50 values.

Series [3] concerns the target T1, Der p 1. On the set-up: method as in PMID 9871695. As to conditions: irreversible acyloxymethyl ketone inhibitors, Figure 1; cited from earlier work.
The nature of series [4]: Measurement of LogD7.4 (n-octanol/PBS shake). The format is physicochemical. As to conditions: for logD at 1.5 h: single determination, n-octanol/PBS pH 7.4, read-out: Log D7.4. Here is the method: Appendix 4. Measurement of LogD7.4
Test compounds (~1 mg) were weighed into 2 mL HPLC vials. n- Octanol (0.7 mL), pre-saturated with 10 mM phosphate buffered saline pH7.4 (PBS), was added to each vial followed b y PBS (0. 7 mL), which had been pre-saturat ed with n-octanol. The mixtures were shaken for 90 min and then centrifuged for 10 min at 4,000 rpm. The upper organic l ayer (0.2 m L) and the aqueous la yer (0.5 mL) were removed from each vial and anal yz e d b y LC -MS. Mass spect ral anal ysis was used to confirm peak identity whilst the concentration of compound was assessed by a diode arra y det ecto r. The logD for each compound was calculated b y takin g th e lo g of its concentration ratio between the oct anol and aqueous la ye r s.Given the robustness of the assa y and the fact that the info rmation was us ed onl y for gen eral guid ance, thes e measu rements were based on singlicate det erminations.

A short description of series [5]: Plasma protein binding, Rapid Equilibrium Dialysis. To be noted: both sexes, Sprague Dawley, plasma (EDTA K2, pooled), rat plasma, 4 h at 37 °C, read-out: PPB (converted). Type of series: in vitro ADME. Here is the method:
(§1) Appendix 2. Pharmaco kinetics an d P l a s ma Protein Binding […]
(§2) Plasma Protein Binding Assay. PPB was determined with a Rapid Equilibrium Dialysis device using 8 kDa molecular weight cut-off inserts (Fisher Scientific UK Ltd, Leicest ershire, UK) as described b y the manufacturer. R at (Sprague Dawl e y strain) plasma EDTA K2 (mixed gender, pooled, SeraLab, West Sussex, UK) was thawed and centrifuged at 13,000 x g for 10 min to remove precipitates before being spiked with compounds (5 µM). The concentrations of compounds in the plasma and buffer chambers were determined b y LC -MS-MS (AB Sciex 3200 QTrap) anal ysis after 4 h incubation at 37 °C. Binding was calculated from the concentration percentage in both chambers as shown below. Assays were p erfo rmed in replicate and the data

Series [6] can be described thus: Pharmacokinetics after oral and iv dosing to rats. As to conditions: for Cmax / bioavailability: male, Sprague-Dawley, plasma; for Cmax / bioavailability / free conc Cmax: rat; for Cmax / free conc Cmax: 5 mg/kg po; for bioavailability: po, 5 mg/kg, read-out: F % (bioavailability). Type of series: in vivo, Sprague-Dawley rat. Here is the method: as §1
Pharma cokinetics. In vivo PK characteristics were determined using non- fasted Sprague-Dawle y rats (mal e, 200-300 g, 10- 16 weeks of age) with groups of three animals per route per compound. Soluble formulations were developed and verified b y HP LC/UV s o that compounds were dosed discretel y b y the iv (1 mg/kg, 1 mL/kg) and po (5 mg/kg, 5 mL/kg) routes. Blood samples were obtained at various times after dosing and plasma prepared for LC -MS-MS quantification of the test substance after inclusion of an intern al standard . PK p aramet ers were calculated usin g a non -compartmental model in WinNonlin v5.2.
as §2

Series [7] relates to nonsensitized rats challenged with a natural mixture of HDM allergens. As to conditions: for efficacy, inhibition of eosinophil recruitment: rat, in vivo; for duration of protection: trend of inhibition of eosinophil recruitment with increasing pre-treatment interval: i.t. aerosol typically 60-360 min prior to allergen challenge, unsensitised BN rats.
Series [8] concerns sensitized BN rats challenged with mixed HDM allergens. Description: HDM allergen challenge of sensitized BN rats, BAL cells. As to conditions: single dose 12 μg/kg (18 nmol/kg) 2 h prior to challenge, BAL 48 h. Type of series: in vivo, Brown Norway rat.
Description: For other studies, rats were actively sensitized to a natural mixture of HDM allergens prepared from laboratory cultures of Dermatophagoides pteronyssinus. Animals were sensitized by the ip route in the absence of additional adjuvant on day 0, 7, and 14. […] Negative control groups comprised naïve, unsensitized animals or those sham-sensitized with vehicle solution.
Test ADIs were delivered as intratracheal aerosols of 25–30 μm mass median diameter from a Penn-Century IA-1B microsprayer at various times prior to allergen challenge. Allergen or vehicle challenge was similarly delivered by Penn-Century microsprayer on day 21 of the protocol. These procedures were conducted under anesthesia with isoflurane in oxygen. Test ADIs were generally dosed in a constant 50:1 molar ratio to the Der p 1 content of the allergen challenge mixture.
Animals were killed by sodium pentobarbital overdose 48 h after allergen challenge because this is the optimal sampling point to assess the recruitment of eosinophils (our unpublished observations). The airways were lavaged with 3 × 4 mL aliquots of Hanks’ Balanced Salt Solution and the recovered cells pooled and counted automatically (ADVIA; Bayer Healthcare, Diagnostics Division, UK). […] Cells were counted by an independent observer using light microscopy under oil immersion (×1000). […]
A further series concerns the target Der f 1 (Dermatophagoides farinae, UniProt P16311). Briefly: Group 1 HDM peptidase allergen inhibition assay (Der f 1). Type of series: biochemical, D. farinae. To be noted: in vitro enzymatic assay, mean ± SE. Here is the method:
Automated screening of inhibitory activity toward group 1 HDM peptidase allergens was performed as described elsewhere[25],[43] with the minor modification that Der p 1 or Der f 1 were incubated with inhibitors for 20 min prior to initiation of reactions by addition of substrate. In initial screening, the activity of each compound was measured using a series of 10 doubling dilutions from a starting concentration of 50 μM. Compounds showing optimizable activity were cherry-picked for multiple (up to six) rounds of rescreening to confirm activity and stability and to determine IC50 values over a range of concentrations that were compound-directed by initial screening. Assays were performed in triplicate for calculation of mean ± SE IC50 values.

The target in a further series is recombinant human Cat S (Homo sapiens, UniProt P25774). Description: Cathepsin S inhibition assay. Type of series: biochemical. As to conditions: in vitro enzymatic assay, mean ± SE; read-out: Cat S.
Chain of recombinant human Cat S (P25774 115-331): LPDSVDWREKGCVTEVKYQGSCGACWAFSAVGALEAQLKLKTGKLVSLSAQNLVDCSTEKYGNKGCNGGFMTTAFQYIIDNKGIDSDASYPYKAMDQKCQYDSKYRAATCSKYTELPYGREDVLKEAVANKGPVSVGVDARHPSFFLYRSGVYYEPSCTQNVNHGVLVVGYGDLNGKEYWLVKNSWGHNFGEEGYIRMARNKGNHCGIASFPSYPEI
Setting [9] is: 5 mg/kg po compared with 1 mg/kg iv, nonfasted Sprague–Dawley rats, mean ± SE, n = 3.

Chain of Der f 1 (P16311 99-321): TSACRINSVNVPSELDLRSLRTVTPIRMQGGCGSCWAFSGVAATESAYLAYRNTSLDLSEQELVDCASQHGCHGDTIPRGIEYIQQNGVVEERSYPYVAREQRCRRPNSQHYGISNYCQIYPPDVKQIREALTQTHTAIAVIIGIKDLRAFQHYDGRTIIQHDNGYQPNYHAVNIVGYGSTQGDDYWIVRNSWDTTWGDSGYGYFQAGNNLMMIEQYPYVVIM
Description for human liver Cat B: Inhibition of Cat B was measured as described with modifications.[25] […] Progress curves were followed at 30 °C by detection of fluorescence at 320/420 nm (excitation/emission).
(§3) In all cases, for reactions involving inhibitors, the amount of reaction buffer was adjusted to 60 μL, the inhibitor added as a 10 μL aliquot, and incubated for 20 min with the enzyme prior to reaction start.
Description for recombinant human Cat S: as §3

Regarding `CC(C)C(NC(=O)[C@H](C)NC(=O)[C@H](Cc1ccccc1)NC(=O)c1ccccc1)C(=O)C(=O)NC1CCCCC1` (mixture of isomers) [Compound 19], the “remaining unchanged (processing by airway macrophages)” value in [1] (after 2 h) is listed as about 70%. In addition, the IC50 on human liver Cat B is 52 ± 5 nM; on Der p 1 [2], 18 ± 2 nM.

With `CCCC[C@H](NC(=O)[C@H](C)NC(=O)[C@@H](NC(=O)c1ccccc1)C(C)C)C(=O)COC(=O)c1ccccc1` [Compound 1], the “Kobs/[I]” value at Der p 1 [3] was 210000 M⁻¹ s⁻¹.

In the case of `CCCC[C@H](NC(=O)[C@H](C)NC(=O)[C@@H](NC(=O)c1ccccc1)C(C)C)C(=O)COC(=O)c1c(C(F)(F)F)cccc1C(F)(F)F` [Compound 2], the “Kobs/[I]” value at Der p 1 [3] was 1.6e+06 M⁻¹ s⁻¹.

Take `CCCC[C@H](NC(=O)[C@H](C)NC(=O)[C@H](Cc1ccccc1)NC(=O)c1ccccc1)C(=O)C(=O)NC1CCCCC1` [Compound 5, N-{(S)-1-[(S)-1-((S)-1-Cyclohexylaminooxalyl-pentylcarbamoyl)-ethylcarbamoyl]-2-phenyl-ethyl}-benzamide]: in [1] (over a 2 h period), the “degraded by airway macrophages” value is on record as over 50%.

On to `CC(C)[C@H](NC(=O)[C@H](C)NC(=O)[C@@H](NC(=O)c1ccccc1)C(C)(C)C)C(=O)C(=O)NC1CCCCC1` [Compound 22, N-{(S)-1-[(S)-1-((S)-1-Cyclohexylaminooxalyl-2-methyl-propylcarbamoyl)-ethylcarbamoyl]-2,2-dimethyl-propyl}-benzamide], for which the “degradation by airway macrophages” value in series [1] (over 2 h) was “no significant degradation”. For the same compound, the IC50 at human liver Cat B amounted to 378 ± 27 nM; against Der p 1 [2] it was 14 ± 3 nM. Besides, in series [4], the logD at 1.5 h stood at 3.9.

`CC(C)[C@H](NC(=O)[C@H](C)NC(=O)[C@@H](N1Cc2ccccc2C1=O)C(C)(C)C)C(=O)C(=O)NCc1ccccc1` [Compound 28, (S)-3-{(S)-2-[(S)-3,3-Dimethyl-2-(1-oxo-1,3-dihydro-isoindol-2-yl)-butyrylamino]-propionylamino}-4-methyl-2-oxo-pentanoic Acid Benzylamide]: the IC50 was 429 ± 65 nM on human liver Cat B and 7 ± 1 nM on Der p 1 [2]. In addition, the logD at 1.5 h in [4] worked out at 3.6. The fraction unbound at 4 h, 5 µM in [5] is 0.02. This compound gave a Cmax in series [6] (mean ± SE, n = 3) of 663 ± 26 nM. Besides, the bioavailability in series [6] (setting [9]) was 20 ± 1%. Besides, the “free conc Cmax” value in [6] was found to be 11 ± 0 nM.

On to `CC(C)[C@H](NC(=O)[C@H](C)NC(=O)[C@@H](NC(=O)C1CC[N+](C)(C)CC1)C(C)(C)C)C(=O)C(=O)NCc1ccccc1.O=C[O-]` [Compound 32, 4-{(S)-1-[(S)-1-((S)-1-Benzylaminooxalyl-2-methyl-propylcarbamoyl)-ethylcarbamoyl]-2,2-dimethyl-propylcarbamoyl}-1,1-dimethyl-piperidinium Formate], for which the “efficacy, inhibition of eosinophil recruitment” value in series [7] is given as “Good efficacy”. Moreover, on human liver Cat B, the IC50 was found to be 274 ± 44 nM. Also, in [8], the “eosinophil recruitment” value was “marked inhibition” and the “increase in total nucleated cells recoverable by BAL” value is reported as “significantly blunted”. The same compound gave an IC50 against Der f 1 of 4 nM. Also, the logD at 1.5 h in series [4] was -0.9. The fraction unbound at 4 h, 5 µM in series [5] was 0.388. In addition, in series [6] (setting [9]), the “F % (bioavailability)” value is listed as 0.6 ± 0.2% and the bioavailability is 1%. Also, the Cmax in [6] (mean ± SE, n = 3) came out at 20 ± 13 nM. Also, in [6], the “free conc Cmax” value was determined as 8 ± 0 nM.

Turning to `CC(C)[C@H](NC(=O)[C@H](C)NC(=O)[C@@H](NC(=O)c1ccccc1)C(C)(C)C)C(=O)C(=O)NC1CC1` [Compound 35], the “duration of protection: trend of inhibition of eosinophil recruitment with increasing pre-treatment interval” value in [7] is “rise to well-maintained”. Besides, the results for the IC50 on human liver Cat B and at Der p 1 [2] were 417 ± 25 nM and 17 ± 1 nM, respectively. Further, the logD in series [4] (pH 7.4, versus compound 22, read-out: reduction of measured log D on replacing cyclohexyl (22) by cyclopropyl) was about 1.5. Also, in series [4], the logD at 1.5 h came to 2.4. Besides, in [5], the fraction unbound at 4 h, 5 µM is 0.155. The Cmax in [6] (mean ± SE, n = 3) amounted to 1140 ± 268 nM. The bioavailability in series [6] (setting [9]) turned out to be 90 ± 11%. In addition, in series [6], the “free conc Cmax” value was found to be 176 ± 0 nM.

On to `CC(C)[C@H](NC(=O)[C@H](C)NC(=O)[C@H](Cc1ccccc1)NC(=O)c1ccccc1)C(=O)C(=O)NCC(=O)N1CCN(C)CC1` [Compound 45, N-[(S)-1-((S)-1-{(S)-2-Methyl-1-[2-(4-methyl-piperazin-1-yl)-2-oxo-ethylaminooxalyl]-propylcarbamoyl}-ethylcarbamoyl)-2-phenyl-ethyl]-benzamide], for which, in [7], the “duration of protection: trend of inhibition of eosinophil recruitment with increasing pre-treatment interval” value was “waned”. In addition, the IC50 on human liver Cat B is 544 ± 40 nM; against Der p 1 [2], 14 ± 1 nM. In series [4], the logD at 1.5 h was 1.3.

For the compound `CC(C)[C@H](NC(=O)[C@H](C)NC(=O)[C@H](Cc1ccccc1)NC(=O)c1ccccc1)C(=O)C(=O)NCC(=O)N1CCOCC1` [Compound 47, N-((S)-1-{(S)-1-[(S)-2-Methyl-1-(2-morpholin-4-yl-2-oxo-ethylaminooxalyl)-propylcarbamoyl]-ethylcarbamoyl}-2-phenyl-ethyl)-benzamide], the “duration of protection: trend of inhibition of eosinophil recruitment with increasing pre-treatment interval” value in series [7] was “rise to a peak”. The IC50 on human liver Cat B was found to be 88 ± 10 nM; against Der p 1 [2], 9 ± 1 nM. Further, the logD at 1.5 h in [4] was found to be 1.7.

As for `CC(C)[C@H](NC(=O)[C@H](C)NC(=O)[C@H](Cc1ccccc1)NC(=O)c1ccccc1)C(=O)C(=O)NCC(=O)N1CC[N+](C)(C)CC1.O=C[O-]` [Compound 52, 4-(2-{(S)-3-[(S)-2-((S)-2-Benzoylamino-3-phenyl-propionylamino)-propionylamino]-4-methyl-2-oxo-pentanoylamino}-acetyl)-1,1-dimethyl-piperazin-1-ium Formate], the “efficacy, inhibition of eosinophil recruitment” value in [7] is “Good efficacy”. Besides, the IC50 at human liver Cat B was over 2500 nM; on Der f 1, 11 ± 1 nM; at recombinant human Cat S, 114 ± 7 nM. Further, the logD at 1.5 h in series [4] was -0.6. Also, the fraction unbound at 4 h, 5 µM in [5] is 0.365. The Cmax in series [6] (mean ± SE, n = 3) worked out at 7 ± 2 nM. Also, in [6] (setting [9]), the bioavailability turned out to be 0%. Further, the “free conc Cmax” value in series [6] was 3 ± 0 nM.

In the case of `CC(C)[C@H](NC(=O)[C@H](C)NC(=O)[C@H](Cc1ccccc1)NC(=O)c1cccc2ccccc12)C(=O)C(=O)NCC(=O)N1CCN(C)CC1` [Compound 53, Naphthalene-1-carboxylic Acid [(S)-1-((S)-1-{(S)-2-Methyl-1-[2-(4-methyl-piperazin-1-yl)-2-oxo-ethylaminooxalyl]-propylcarbamoyl}-ethylcarbamoyl)-2-phenyl-ethyl]-amide], the “duration of protection: trend of inhibition of eosinophil recruitment with increasing pre-treatment interval” value in series [7] was “waned”. Also, the IC50 is 540 ± 28 nM at human liver Cat B and 20 ± 3 nM on Der p 1 [2]. Moreover, the logD at 1.5 h in series [4] is 2.
